Literature values as cited in patent US5661161A, “Inhibitors of farnesyl-protein transferase” (Merck & Co., Inc., priority 1995, dated 1997).

Tested on: farnesyl-protein transferase
Conditions: literature; via inhibition of HMG-CoA reductase

Structure (SMILES) | Indirect inhibition of farnesyl-protein transferase in vivo
CC[C@H](C)C(=O)O[C@H]1CCC=C2C=C[C@H](C)[C@H](CC[C@@H]3C[C@@H](O)CC(=O)O3)[C@H]21 [compactin] | Indirect inhibition
CC[C@H](C)C(=O)O[C@H]1C[C@@H](C)C=C2C=C[C@H](C)[C@H](CC[C@@H]3C[C@@H](O)CC(=O)O3)[C@H]21 [lovastatin] | Indirect inhibition
